According to US7572434B2, “Method for assessing the effect of a drug on long term memory formation” (Cold Spring Harbor Laboratory, priority 1994, dated 2009):

Legend:
[1] = tested on: wild-type (Can-S) flies; test: Pavlovian olfactory learning: memory retention after massed or spaced training in flies fed cycloheximide; type: in vivo, Drosophila; conditions: for one-day memory after massed training: vs control flies; for one-day memory retention after spaced training: vs glucose-fed flies
Description: For experiments on one day retention after massed or spaced training, flies were fed 35 mM CXM and (w/v) 5% glucose dissolved in 3% ethanol. Groups of 100 flies were placed in feeding tubes (Falcon 2017) containing one 1.0×2.5 cm Whatmann 3MM filter paper strips that was soaked with a total of 126 μl of solution.
The feeding period was limited to 12-14 hrs prior to training, or to the 24-hr retention interval after training. Flies which were fed prior to training were transferred directly to the training apparatus after feeding, subjected to massed or spaced training, then transferred to test tubes containing filter paper strips soaked with 5% glucose during the 24-hr interval. Flies which were fed after training were trained, then transferred immediately to test tubes containing filter paper strips soaked with 5% glucose solution which was laced with 35 mM CXM. Flies remained in the test tubes for the duration of the 24-hr retention interval.
Flies were trained with an automated version of the learning procedure of Tully, T. and W. G. Quinn, J. Comp. Physiol., 157: 263-277 (1985). In brief, flies were trapped in a training chamber, the inside of which was covered with an electrifiable copper grid. Groups of about 100 flies were exposed sequentially to two odors [either octanol (OCT) or methylcyclohexanol (MCH)], which were carried through the training chamber in a current of air, for 60 seconds with 45 seconds rest intervals after each odor presenation. During exposure to the first odor, flies also were subjected to twelve 1.5-second pulses of 60 V DC with a 5-second interpulse interval. After training, flies were transferred to food vials for a particular retention interval. Conditioned odor-avoidance responses then were tested by transferring flies to the choice point of a T-maze, where they were exposed simultaneously to OCT and MCH carried in the distal ends of the T-maze arms and out the choice point on converging currents of air. Flies were allowed to distribute themselves in the T-maze arms for two minutes, after which they were trapped in their respective arms, anesthetized and counted. The “percent correct” then was calculated as the number of flies avoiding the shock-paired odor (they were in the opposite T-maze arm) divided by the total number of flies in both arms. (The number of flies left at the choice point, which usually was less than 5%, were not included in this calculation). Finally, a performance index (PI) was calculated by averaging the percent corrects of two reciprocal groups of flies—one where OCT and shock were paired, the other where MCH and shock were paired—and then by normalizing the average so that a PI=0 represented a 50:50 distribution in the T-maze and a PI=100 represented 100% avoidance of the shock-paired odor. For these studies, three different training protocols were used: 1. One-cycle training consisted of the training session just described. 2. Massed training consisted of 10 of these training cycles delivered one right after the other. 3. Spaced training consisted of 10 training cycles with a 15-min rest interval between each. One-cycle training was used to assay learning, while massed and spaced was used to assay consolidated memories.
A. One-day memory in wild-type flies fed CXM before or immediately after massed or spaced training (FIG. 8): PIs from these four drug treatments (−CXM before, −CXM after, +CXM before and +CXM after) and two training procedures (massed and spaced) were subjected to a TWO-WAY ANOVA with DRUG (F(3,56)=8.93; P<0.001) and TRAINing (F(1,56)=18.10, P<0.001) as main effects and DRUG×TRAIN (F(3,56)=4.68, P=0.006) as the interaction term. The six planned comparisons were judged significant if P≦0.01.
Different groups of wild-type (Can-S) flies were fed 5% glucose solution alone (hatched bars) or laced with 35 mM CXM (striped bars) either for 12-14 hr overnight before massed or spaced training or for the 24-hr retention interval immediately after training. […]

[2] = target: T1, DNOS (Drosophila nitric oxide synthase) (Drosophila melanogaster, UniProt Q27571, DUP33-33/S105L/S1197R/S20A/S287C); test: DNOS enzyme activity, conversion of 3H-L-arginine to 3H-L-citrulline in extracts of dNOS-transfected 293 cells; type: biochemical
T1 construct: contained dNOS cDNA (with an XbaI site engineered immediately upstream of the ATG codon) cloned into the XbaI and SmaI sites; made in house; host or cells: 293 human embryonic kidney cells, transient calcium-phosphate transfection; unpurified soluble protein extract
T1 sequence (Q27571 other isoform, or with tags, fused parts or gaps S20A/DUP33-33/S105L/S287C/S1197R): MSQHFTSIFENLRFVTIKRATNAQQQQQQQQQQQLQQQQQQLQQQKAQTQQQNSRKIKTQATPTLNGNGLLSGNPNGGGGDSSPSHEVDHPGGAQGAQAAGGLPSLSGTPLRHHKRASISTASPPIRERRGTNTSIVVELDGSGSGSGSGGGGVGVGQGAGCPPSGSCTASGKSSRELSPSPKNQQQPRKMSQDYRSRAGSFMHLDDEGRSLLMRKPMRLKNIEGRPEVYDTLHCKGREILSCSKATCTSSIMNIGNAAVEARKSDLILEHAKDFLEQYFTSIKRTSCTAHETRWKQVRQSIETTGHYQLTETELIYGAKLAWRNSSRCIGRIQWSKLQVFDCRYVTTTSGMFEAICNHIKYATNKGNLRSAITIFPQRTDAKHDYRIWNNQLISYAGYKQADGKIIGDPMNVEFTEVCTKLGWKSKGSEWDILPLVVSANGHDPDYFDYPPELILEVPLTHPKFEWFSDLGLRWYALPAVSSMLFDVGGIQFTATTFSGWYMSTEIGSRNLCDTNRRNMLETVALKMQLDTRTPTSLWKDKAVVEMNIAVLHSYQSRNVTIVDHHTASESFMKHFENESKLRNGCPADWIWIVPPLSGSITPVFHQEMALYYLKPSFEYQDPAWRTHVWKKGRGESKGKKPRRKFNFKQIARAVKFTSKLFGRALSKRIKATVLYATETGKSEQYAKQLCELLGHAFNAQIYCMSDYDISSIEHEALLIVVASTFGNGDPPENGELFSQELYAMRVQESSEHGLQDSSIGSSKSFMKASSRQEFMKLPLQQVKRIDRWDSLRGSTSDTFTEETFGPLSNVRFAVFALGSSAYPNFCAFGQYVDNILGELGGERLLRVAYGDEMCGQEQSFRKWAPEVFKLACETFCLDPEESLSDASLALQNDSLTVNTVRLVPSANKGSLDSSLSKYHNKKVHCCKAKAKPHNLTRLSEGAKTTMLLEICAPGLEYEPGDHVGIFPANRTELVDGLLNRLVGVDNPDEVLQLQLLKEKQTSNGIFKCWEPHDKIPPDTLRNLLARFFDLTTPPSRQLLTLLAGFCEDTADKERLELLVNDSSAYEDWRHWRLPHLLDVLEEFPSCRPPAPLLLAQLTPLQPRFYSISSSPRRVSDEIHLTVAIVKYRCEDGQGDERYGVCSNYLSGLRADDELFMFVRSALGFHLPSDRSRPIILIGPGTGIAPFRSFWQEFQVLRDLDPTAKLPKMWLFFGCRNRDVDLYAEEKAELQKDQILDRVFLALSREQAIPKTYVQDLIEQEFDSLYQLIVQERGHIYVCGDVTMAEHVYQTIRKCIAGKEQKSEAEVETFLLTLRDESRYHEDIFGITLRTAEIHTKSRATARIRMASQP
Source text: [In a parallel experiment, the specific activity of rat neuronal NOS expressed from the same vector in 293 cells was 3.0±0.02 pmol/mg/min, N=4]. DNOS activity was dependent on exogenous Ca^2+/calmodulin and on NADPH, two cofactors necessary for activity of constitutive mammalian NOSs (Iyengar, R., Proc. Natl. Acad. Sci. USA, 84: 6369-6373 (1987); Bredt, D. S., Proc. Natl. Acad. Sci. USA, 87: 682-685 (1990)). DNOS activity was reduced 90% by the Ca^2+ chelator EGTA (FIG. 17B, group C). Also, 500 μM N-(6-aminohexyl)-1-naphthalene-sulfonamide (W5), a calmodulin antagonist which inhibits activity of neuronal NOS (Bredt, D. S., Proc. Natl. Acad. Sci. USA, 87: 682-685 (1990)), diminished DNOS activity to 18% (0.0222±0.001 pmol/mg/min, N=2). In the absence of exogenous NADPH, DNOS (or nNOS) activity was reduced 20% (0.1061±0.011 pmol/mg/min, N=4 for DNOS; 2.7935±0.033 pmol/mg/min, N=2 for NNOS). DNOS activity also was blocked by inhibitors of mammalian NOSs (Rees, D. D., Br. J. Pharmacol., 101: 746-752 (1990)).
The expression construct for activity assays contained dNOS cDNA (with an XbaI site engineered immediately upstream of the ATG codon) cloned into the XbaI and SmaI sites of the pCGN expression vector (M. Tanaka and W. Herr, Cell, 60: 375 (1990)). 293 human kidney cells were transfected with 15 μg of the dNOS construct, or vector DNA, and precipitated with calcium phosphate as described in (M. J. Imperiale, L. T. Feldman and J. R. Nevins, Cell, 35: 127 (1983)). Cells were collected 2 days later and protein extracts were prepared as described in (J. Sambrook, E. F. Fritsch, T. Maniatis, Molecular Cloning: A Laboratory Manual (Cold Spring Harbor Laboratory, Cold Spring Harbor, N.Y., 1989)).
The enzymatic assay was done essentially as described previously (D. Bredt and S. Snyder, Proc. Natl. Acad. Sci. USA, 87: 682 (1990)). A […] containing 25 μl (50-100 μg) of soluble protein extract, 50 mM Hepes pH 7.4, […], 3 μM FMN, 10 μM tetrahydrobiopterin (ICN), 1 mM DTT, 0.8 mM CaCl2, 1 mM NADPH, 10 μg/ml calmodulin, 2 μl of [^3H]L-arginine (35.7 Ci/mmol, NEN) and 50 mM L-valine in was incubated for 60 minutes at 37° C. The reaction was stopped with 0.5 ml 20 mM Hepes pH 5.5, 2 mM EDTA, 2 mM EGTA, loaded on 0.5 ml Dowex AG 50WX-8 (Na^+ form) column and eluted with 3×0.5 ml of the stop buffer. Radioactivity present in the eluent was quantified in a scintillation counter.
Enzymatic activity was detected only in cells transfected with dNOS cDNA construct (groups B-D) and is presented as specific activity (pmol of citrulline/mg/min.). The DNOS activity also was measured in the presence of 1 mM EGTA without exogenous Ca^2+ or calmodulin (group C), or in the presence of […] (group D). N=4 reactions per group.

[3] = tested on: PKA-responsive transcription (CRE-directed reporter) in F9 cells; test: PKA-responsive transcription from the CRE-containing D(-71) CAT reporter in transiently transfected F9 cells; type: cell-based; conditions: cotransfection of dCREB2-a and PKA; CAT/βgal ratios standardized to PKA-transfected dishes
Description: Undifferentiated F9 cells were maintained and transfected using the calcium phosphate method as described in Darrow, A. L. et al., “Maintenance and Use of F9 Teratocarcinoma Cells”, In Meth. Enzymol., v. 190 (1990), except that chloroquine was added to […] immediately before transfection and precipitates were washed off ten hours after transfection, at which time the dishes received fresh chloroquine-free medium. Amounts of DNA in transfections were made equivalent by adding RSV-0 where required. Cells were harvested 30 hours after transfection. Extracts were made by three cycles of freeze/thawing, with brief vortexing between cycles. Particulate matter was cleared from extracts by ten minutes of centrifugation in the cold. β-galactosidase assays were performed as described in Miller, J. H., Experiments in Molecular Genetics, Cold Spring Harbor Laboratory, Cold Spring Harbor, N.Y., 1972. CAT assays were performed as described in Sheen, J. Y. and B. Seed, Gene, 67: 271-277 (1988) using aliquots of extract heat-treated at 65° C. for ten minutes and centrifuged for ten minutes to remove debris. Results reported are from three experiments run on different days with at least three dishes per condition within each experiment. Error bars represent standard error of the mean, with error propagation taken into account (Grossman, M. and H. W. Norton, J. Hered., 71: 295-297 (1980)).
F9 cells were transiently transfected with 10 μg of D(−71) CAT plasmid as a CRE-directed reporter. 5 μg of RSV-βgal reporter was included in each dish as a normalization control for transfection efficiency. Different groups received 8 μg of dCREB2-a expression vector and 4 μg of PKA expression vector, separately or in combination. Results are expressed as CAT/Pgal enzyme activity ratios, standardized to values obtained with PKA-transfected dishes. […]
Two different dCREB2 isoforms, dCREB2-a and dCREB2-b, have opposite roles in PKA-responsive transcription. […] CREB-dependent changes in gene expression were measured using a cotransfected construct that has a CRE-containing promoter fused to a reporter gene.

[4] = 35 mM CXM fed 12-14 hr before training
[5] = 35 mM CXM fed for the 24-hr retention interval after training
[6] = flies fed CXM immediately before or after training

In the case of `C[C@@H]1C[C@@H]([C@H](O)CC2CC(=O)NC(=O)C2)C(=O)[C@@H](C)C1` [CXM, cycloheximide], the “one-day memory after massed training” value [1, 4] is reported as “no difference was detected”, the “one-day memory retention after spaced training” value [1, 4] is reported as “significantly lower than normal” and the “one-day memory after massed training” value [1, 5] is reported as “no difference was detected”. The “one-day memory retention after spaced training” value [1, 5] was “significantly lower than normal”, the “anesthesia-resistant memory (ARM)” value [1, 6] was “not affected” and the “long-term memory (LTM)” value [1, 6] was “completely blocked”.

Work on `O=C(O)CN(CCOCCOCCN(CC(=O)O)CC(=O)O)CC(=O)O` [EGTA] yielded a DNOS activity reduced ([2]; 1 mM EGTA without exogenous Ca2+ or calmodulin (FIG. 17B, group C)) of 90%.

For `COC(=O)[C@@H](N)CCCNC(=N)N[N+](=O)[O-]` [L-NAME, N^G-nitro-L-arginine methyl ester], the DNOS activity reduced ([2]; 100 mM L-NAME with exogenous Ca2+/calmodulin (FIG. 17B, group D)) was 84%.

For `CC(=O)O.CNC(=N)NCCC[C@H](N)C(=O)O` [N^G-monomethyl-L-arginine acetate], the “block of DNOS activity” value ([2]; 100 μM N^G-monomethyl-L-arginine acetate) was “complete block” and the DNOS specific activity ([2]; 100 μM N^G-monomethyl-L-arginine acetate, N=2) was 0.0001 ± 0.0002 pmol/mg/min.

Work on `NCCCCCCNS(=O)(=O)c1cccc2ccccc12` [W5, N-(6-aminohexyl)-1-naphthalene-sulfonamide] yielded a DNOS specific activity ([2]; 500 μM W5, N=2) of 0.0222 ± 0.001 pmol/mg/min and a remaining activity at 500 µM ([2]; 500 μM W5, read-out: DNOS activity diminished to (remaining activity)) of 18%.

B1: dCREB2-a: Drosophila dCREB2 isoform, PKA-responsive transcriptional activator (SEQ ID NO.: 2), expressed from RSV-dCREB2-a (protein, listed as Drosophila sp.)
chain: MDNSIVEENGNSSAASGSNDVVDVVAQQAAAAVGGGGGGGGGGGGGGNPQQQQQNPQSTTAGGPTGATNNAQGGGVSSVLTTTANCNIQYPIQTLAQHGLQVSIWGPGAWCQLSSVRCYGSQPEVATKDVQSVIQANPSGVIQTAAGTQQQQQALAAATAMQKVVYVAKPPNSTVIHTTPGNAVQVRNKIPPTFPCKIKPEPNTQHPEDSDESLSDDDSQHHRSELTRRPSYNKIFTEISGPDMSGASLPMSDGVLNSQLVGTGAGGNAANSSLMQLDPTYYLSNRMSYNTNNSGIAEDQTRKREIRLQKNREAARECRRKKKEYIKCLENRVAVLENQNKALIEELKSLKELYCQTKND
In the case of B1, the “activation of CRE reporter relative to PKA alone” value [3] is reported as 5.4 fold.
